# Patent publication US20100056520A1, “FORMULATIONS OF PHOSPHOLIPASE ENZYME INHIBITORS” (priority 2006, published 2010)
# Assays:
# [1] = Solubility measured at room temperature in water, acid and basic conditions (HPLC); type: physicochemical
# Experimental: The solubility of 4-(3-{5-chloro-1-(diphenylmethyl)-2-[2-({[2-(trifluoromethyl)benzyl]sulfonyl}amino)ethyl]-1H-indol-3-yl}propyl)benzoic acid was measured at room temperature in water, acid and basic conditions.
# The solubility of 4-(3-{5-chloro-1-(diphenylmethyl)-2-[2-({[2-(trifluoromethoxy)benzyl]sulfonyl}amino)ethyl]-1H-indol-3-yl}propyl)benzoic acid was measured at room temperature in water, acid and basic conditions.
# The solubility of 4-(3-{5-chloro-1-(diphenylmethyl)-2-[2-({[2-fluoro-6-(trifluoromethyl)benzyl]sulfonyl}amino)ethyl]-1H-indol-3-yl}propyl)benzoic acid was measured at room temperature in water, acid and basic conditions.
# [2] = system: carrageenan-induced paw edema; experiment: Rat carrageenan-induced paw edema (CPE) study; type: in vivo
# Experimental: Data from a rat carrageenan-induced paw edema (CPE) study indicated the minimum efficacious exposure of 4-(3-{5-chloro-1-(diphenylmethyl)-2-[2-({[2-(trifluoromethyl)benzyl]sulfonyl}amino)ethyl]-1H-indol-3-yl}propyl)benzoic acid was 1360 ng*hr/ml.
# [3] = Solubility in 2% Tween 80/0.5% methylcellulose vehicle; type: physicochemical; details: for solubility: 2% Tween 80/0.5% methylcellulose vehicle, aqueous with cosolvent or surfactant or cyclodextrin, read-out: solubility in 2% Tween 80/0.5% methylcellulose (MC) vehicle
# From the text: (§1) Based on the animal data and solubility in pharmaceutical acceptable excipients, formulation development for first in human studies was undertaken based on this formulation.
# [4] = Rat oral absorption/bioavailability after single oral dose of 25 mg/kg; type: in vivo, rats; details: for oral exposure with addition of 2% Tween 80: 2% Tween 80/0.5% MC vehicle; for bioavailability: rat, in vivo, rats, read-out: estimated bioavailability; for bioavailability / oral absorption in rats: single oral dose of 25 mg/kg in 2% Tween/0.5% MC
# From the text: as §1
# ApoE Mice = experiment: Minimum efficacious exposure in ApoE mice; type: in vivo
"solubility ([1]; aqueous solution (water, acid and basic conditions), aqueous buffer, below the HPLC detection limit, read-out: intrinsic solubility of the free acid) [µg/mL]","solubility ([1]; aqueous solution (water, acid and basic conditions), aqueous buffer, read-out: solubility of the anion) [µg/mL]","solubility ([1]; water, acid and basic conditions, aqueous buffer, below the HPLC detection limit, read-out: intrinsic solubility over the pH range of 1 to 11) [µg/mL]",solubility [3] [µg/mL],oral exposure with addition of 2% Tween 80 [4],bioavailability [4] [%],oral absorption in rats [4],"solubility ([1]; water, acid and basic conditions, water, acid and basic conditions, below the HPLC detection limit, read-out: intrinsic solubility in all conditions) [µg/mL]",solubility enhancement by addition of 2% Tween 80 [3] [fold],solubility in 2% Tween 80/0.5% methylcellulose (MC) vehicle [3] [µg/mL],SMILES,minimum efficacious exposure [2] [ng·h/mL],minimum efficacious exposure (ApoE Mice) [ng·h/mL]
< 0.031,0.11,,,,,,,,,O=C(O)c1ccc(CCCc2c(CCNS(=O)(=O)Cc3ccccc3C(F)(F)F)n(C(c3ccccc3)c3ccccc3)c3ccc(Cl)cc23)cc1 [4-(3-{5-chloro-1-(diphenylmethyl)-2-[2-({[2-(trifluoromethyl)benzyl]sulfonyl}amino)ethyl]-1H-indol-3-yl}propyl)benzoic acid],1360,
,,< 0.1,115,did not afford adequate oral exposure,< 1,relatively low,,,,O=C(O)c1ccc(CCCc2c(CCNS(=O)(=O)Cc3c(F)cccc3C(F)(F)F)n(C(c3ccccc3)c3ccccc3)c3ccc(Cl)cc23)cc1 [4-(3-{5-chloro-1-(diphenylmethyl)-2-[2-({[2-fluoro-6-(trifluoromethyl)benzyl]sulfonyl}amino)ethyl]-1H-indol-3-yl}propyl)benzoic acid],,
,,,496,did not afford adequate oral exposure,~1.8,relatively low,< 0.0212,23.490,498,O=C(O)c1ccc(CCCc2c(CCNS(=O)(=O)Cc3ccccc3OC(F)(F)F)n(C(c3ccccc3)c3ccccc3)c3ccc(Cl)cc23)cc1 [4-(3-{5-chloro-1-(diphenylmethyl)-2-[2-({[2-(trifluoromethoxy)benzyl]sulfonyl}amino)ethyl]-1H-indol-3-yl}propyl)benzoic acid],,2800
